Data as given in ChEMBL document CHEMBL1909046, “DrugMatrix in vitro pharmacology data”.

What was measured:
[1] = biological target: Aldo-keto reductase family 1 member B1 (Rattus norvegicus, UniProt P07943); format: tissue-based, Lens of camera-type eye;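 further: inhibition of aldose reductase enzyme activity, measured with DL-glyceraldehyde as the substrate; in other assays of this panel Not Active means under 50% inhibition at 10 µM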
[2] = DRUGMATRIX: Potassium Channel [KATP] radioligand binding (ligand: [3H] Glyburide); format: cell membranes, Membrane; conditions: hit-t15; Not Active = under 50% inhibition at 10 µM
[3] = DRUGMATRIX: ATPase, Na+/K+ enzyme inhibition (substrate: ATP); format: tissue-based, Sus scrofa, Heart; conditions: Not Active = under 50% inhibition at 10 µM
[4] = biological target: 5-hydroxytryptamine receptor 1B (Rattus norvegicus, UniProt P28564); format: cell membranes, Wistar, Cerebral cortex, Membrane; further: in other assays of this panel Not Active means under 50% inhibition at 10 µM
Melanocortin receptor 5 = Melanocortin receptor 5 (Homo sapiens, UniProt P33032); format: cell membranes, HEK293, Membrane; conditions: hek293; further: in other assays of this panel Not Active means under 50% inhibition at 10 µM
[5] = DRUGMATRIX: GABAA, Muscimol, Central radioligand binding (ligand: [3H] Muscimol); format: cell membranes, Rattus norvegicus, Wistar, Brain, Membrane; conditions: Not Active = under 50% inhibition at 10 µM
Melanocortin receptor 4 = Melanocortin receptor 4 (Homo sapiens, UniProt P32245); format: cell membranes, Membrane; conditions: hek293; further: in other assays of this panel Not Active means under 50% inhibition at 10 µM
Cannabinoid receptor 1 = Cannabinoid receptor 1 (Homo sapiens, UniProt P21554); format: cell membranes, Membrane; conditions: chem-1; further: in other assays of this panel Not Active means under 50% inhibition at 10 µM
[6] = biological target: Protein kinase C alpha type (Homo sapiens, UniProt P17252); format: cell-based; conditions: sf9
[7] = DRUGMATRIX: Tumor Necrosis Factor (TNF), Non-Selective radioligand binding (ligand: [125I] TNF-alpha); format: cell membranes, Membrane; conditions: u-937; Not Active = under 50% inhibition at 10 µM
[8] = biological target: Protein phosphatase 3 catalytic subunit alpha (Homo sapiens, UniProt Q08209); design: species or system Escherichia coli
[9] = biological target: T1, Neuropeptide Y receptor type 2 (Homo sapiens, UniProt P49146); format: cell membranes, Membrane; conditions: kan-ts; further: in other assays of this panel Not Active means under 50% inhibition at 10 µM
T1 sequence (P49146 whole entry): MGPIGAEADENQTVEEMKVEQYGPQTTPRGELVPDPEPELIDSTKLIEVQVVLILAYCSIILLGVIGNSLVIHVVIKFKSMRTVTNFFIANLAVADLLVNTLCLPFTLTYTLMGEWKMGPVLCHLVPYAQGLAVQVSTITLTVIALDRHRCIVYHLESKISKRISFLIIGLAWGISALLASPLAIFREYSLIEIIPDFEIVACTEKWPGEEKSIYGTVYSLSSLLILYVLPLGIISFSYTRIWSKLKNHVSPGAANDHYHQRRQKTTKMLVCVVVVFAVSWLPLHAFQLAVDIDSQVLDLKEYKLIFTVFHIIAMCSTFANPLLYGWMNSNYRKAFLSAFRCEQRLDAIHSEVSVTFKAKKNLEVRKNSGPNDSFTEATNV

[10] = DRUGMATRIX: Phorbol Ester radioligand binding (ligand: [3H] PDBu); format: cell membranes, Mus musculus, ICR, Brain, Membrane; conditions: Not Active = under 50% inhibition at 10 µM
[11] = biological target: T2, Vasoactive intestinal polypeptide receptor 1 (Homo sapiens, UniProt P32241); format: cell membranes, Membrane; conditions: ht-29; further: in other assays of this panel Not Active means under 50% inhibition at 10 µM
T2 sequence (P32241 whole entry): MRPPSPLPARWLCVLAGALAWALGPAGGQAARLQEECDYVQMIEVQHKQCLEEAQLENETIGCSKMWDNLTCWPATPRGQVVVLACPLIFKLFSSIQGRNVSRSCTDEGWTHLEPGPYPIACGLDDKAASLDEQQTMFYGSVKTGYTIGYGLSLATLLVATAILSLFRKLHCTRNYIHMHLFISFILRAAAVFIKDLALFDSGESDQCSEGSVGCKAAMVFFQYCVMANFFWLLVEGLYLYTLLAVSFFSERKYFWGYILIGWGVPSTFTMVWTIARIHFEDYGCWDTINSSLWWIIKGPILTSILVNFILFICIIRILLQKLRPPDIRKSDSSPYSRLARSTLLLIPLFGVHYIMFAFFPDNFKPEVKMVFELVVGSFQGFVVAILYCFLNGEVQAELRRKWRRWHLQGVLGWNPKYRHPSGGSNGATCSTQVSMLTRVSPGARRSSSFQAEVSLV

[12] = biological target: T3, Muscarinic acetylcholine receptor M2 (Homo sapiens, UniProt P08172); format: cell membranes, CHO-K1, Membrane; conditions: cho-k1; further: in other assays of this panel Not Active means under 50% inhibition at 10 µM
T3 sequence (P08172 whole entry): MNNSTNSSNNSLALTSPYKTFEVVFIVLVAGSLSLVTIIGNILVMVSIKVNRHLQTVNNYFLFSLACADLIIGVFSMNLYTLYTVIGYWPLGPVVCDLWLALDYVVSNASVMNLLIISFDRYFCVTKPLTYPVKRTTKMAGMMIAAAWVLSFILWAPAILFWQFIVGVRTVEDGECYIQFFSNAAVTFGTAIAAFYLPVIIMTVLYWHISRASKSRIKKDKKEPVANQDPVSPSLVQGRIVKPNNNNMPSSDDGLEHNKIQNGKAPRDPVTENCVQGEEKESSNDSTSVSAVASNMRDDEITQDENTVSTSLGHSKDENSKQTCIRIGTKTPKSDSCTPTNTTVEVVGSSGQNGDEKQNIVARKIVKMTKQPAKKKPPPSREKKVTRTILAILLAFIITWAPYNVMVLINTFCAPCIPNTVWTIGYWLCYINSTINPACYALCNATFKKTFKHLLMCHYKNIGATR

Substance-K receptor = biological target: T4, Substance-K receptor (Homo sapiens, UniProt P21452); format: cell membranes, CHO, Membrane; conditions: cho; further: in other assays of this panel Not Active means under 50% inhibition at 10 µM
T4 sequence (P21452 whole entry): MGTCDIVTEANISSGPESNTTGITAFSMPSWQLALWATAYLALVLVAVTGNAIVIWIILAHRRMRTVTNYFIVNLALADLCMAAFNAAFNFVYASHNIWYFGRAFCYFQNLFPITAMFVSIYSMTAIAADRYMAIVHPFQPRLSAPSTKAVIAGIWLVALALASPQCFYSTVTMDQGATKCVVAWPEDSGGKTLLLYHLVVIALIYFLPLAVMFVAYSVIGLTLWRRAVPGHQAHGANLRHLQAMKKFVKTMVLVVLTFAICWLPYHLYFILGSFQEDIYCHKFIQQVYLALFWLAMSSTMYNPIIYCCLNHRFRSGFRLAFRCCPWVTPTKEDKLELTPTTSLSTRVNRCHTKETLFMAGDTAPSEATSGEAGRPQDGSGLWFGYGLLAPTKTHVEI

[13] = DRUGMATRIX: Glutamate, Kainate radioligand binding (ligand: [3H] Kainic acid); format: cell membranes, Rattus norvegicus, Wistar, Brain, Membrane; conditions: Not Active = under 50% inhibition at 10 µM

Chain of Melanocortin receptor 5 (P33032 whole entry): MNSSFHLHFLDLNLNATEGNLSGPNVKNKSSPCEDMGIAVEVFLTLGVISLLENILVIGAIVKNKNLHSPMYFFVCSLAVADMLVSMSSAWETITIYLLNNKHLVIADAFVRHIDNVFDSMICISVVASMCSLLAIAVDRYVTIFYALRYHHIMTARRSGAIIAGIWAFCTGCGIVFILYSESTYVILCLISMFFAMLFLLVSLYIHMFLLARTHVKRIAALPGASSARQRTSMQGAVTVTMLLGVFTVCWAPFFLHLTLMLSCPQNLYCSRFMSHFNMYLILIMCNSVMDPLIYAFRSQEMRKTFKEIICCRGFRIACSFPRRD
Chain of 5-hydroxytryptamine receptor 1B (P28564 whole entry): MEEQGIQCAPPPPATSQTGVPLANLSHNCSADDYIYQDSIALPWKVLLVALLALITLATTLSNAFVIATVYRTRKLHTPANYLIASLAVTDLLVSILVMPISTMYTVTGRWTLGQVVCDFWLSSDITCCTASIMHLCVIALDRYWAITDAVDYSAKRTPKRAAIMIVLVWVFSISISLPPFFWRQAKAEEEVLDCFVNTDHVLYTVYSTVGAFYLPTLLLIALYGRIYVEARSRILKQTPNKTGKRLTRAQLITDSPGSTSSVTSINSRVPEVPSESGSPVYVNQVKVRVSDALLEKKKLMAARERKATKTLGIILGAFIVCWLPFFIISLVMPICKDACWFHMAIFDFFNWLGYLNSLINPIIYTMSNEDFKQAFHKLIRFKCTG
Chain of Melanocortin receptor 4 (P32245 whole entry): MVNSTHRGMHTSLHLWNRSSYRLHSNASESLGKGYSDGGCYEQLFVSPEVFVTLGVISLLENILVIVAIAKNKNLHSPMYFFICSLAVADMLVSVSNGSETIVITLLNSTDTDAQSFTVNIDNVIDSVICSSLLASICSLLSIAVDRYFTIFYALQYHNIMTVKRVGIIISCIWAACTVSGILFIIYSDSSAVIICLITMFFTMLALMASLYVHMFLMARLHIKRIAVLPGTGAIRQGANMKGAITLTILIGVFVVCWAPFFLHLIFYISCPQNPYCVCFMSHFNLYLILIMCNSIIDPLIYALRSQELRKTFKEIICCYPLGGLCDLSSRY
Chain of Cannabinoid receptor 1 (P21554 whole entry): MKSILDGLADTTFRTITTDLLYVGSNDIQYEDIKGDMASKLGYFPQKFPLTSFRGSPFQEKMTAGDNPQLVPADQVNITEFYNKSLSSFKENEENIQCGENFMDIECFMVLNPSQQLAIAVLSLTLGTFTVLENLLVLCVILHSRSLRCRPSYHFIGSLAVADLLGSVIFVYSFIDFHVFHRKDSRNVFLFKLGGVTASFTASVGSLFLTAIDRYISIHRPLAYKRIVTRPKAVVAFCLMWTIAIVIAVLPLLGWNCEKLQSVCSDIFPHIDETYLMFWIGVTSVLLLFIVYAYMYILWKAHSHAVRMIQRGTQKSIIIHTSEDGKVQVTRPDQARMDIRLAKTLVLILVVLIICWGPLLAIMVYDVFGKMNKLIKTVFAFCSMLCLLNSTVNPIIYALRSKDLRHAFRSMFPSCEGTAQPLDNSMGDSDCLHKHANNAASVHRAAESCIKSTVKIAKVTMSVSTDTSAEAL

CC(C)(C)NCC(O)c1cc(O)cc(O)c1 (centres undefined) [TERBUTALINE]
Not Active: IC50 [1] | IC50 [2] | Ki [2] | IC50 [3] | Ki [3] | IC50 [4] | IC50 (Melanocortin receptor 5) | IC50 [5] | Ki [5] | IC50 (Melanocortin receptor 4) | IC50 (Cannabinoid receptor 1) | IC50 [6] | IC50 [7] | Ki [7] | IC50 [8] | IC50 [9] | IC50 [10] | Ki [10] | IC50 [11] | IC50 [12] | IC50 (Substance-K receptor) | IC50 [13] | Ki [13]

CN(C)[C@@H]1C(O)=C(C(N)=O)C(=O)[C@@]2(O)C(O)=C3C(=O)c4c(O)cccc4[C@@](C)(O)[C@H]3C[C@@H]12 [TETRACYCLINE]
Not Active: IC50 [1] | IC50 [2] | Ki [2] | IC50 [3] | Ki [3] | IC50 [4] | IC50 (Melanocortin receptor 5) | IC50 [5] | Ki [5] | IC50 (Melanocortin receptor 4) | IC50 (Cannabinoid receptor 1) | IC50 [6] | IC50 [7] | Ki [7] | IC50 [8] | IC50 [9] | IC50 [10] | Ki [10] | IC50 [11] | IC50 [12] | IC50 (Substance-K receptor) | IC50 [13] | Ki [13]

c1ccc2[nH]c(-c3cscn3)nc2c1 [THIABENDAZOLE]
Not Active: IC50 [1] | IC50 [2] | Ki [2] | IC50 [3] | Ki [3] | IC50 [4] | IC50 (Melanocortin receptor 5) | IC50 [5] | Ki [5] | IC50 (Melanocortin receptor 4) | IC50 (Cannabinoid receptor 1) | IC50 [6] | IC50 [7] | Ki [7] | IC50 [8] | IC50 [9] | IC50 [10] | Ki [10] | IC50 [11] | IC50 [12] | IC50 (Substance-K receptor) | IC50 [13] | Ki [13]
